Assays:
Type in all cases: cell-based
HUVEC = assay: Cell growth inhibition experiment (SRB), HUVEC; settings: Homo sapiens, incubated for 96 hours, read-out: IC50 (μM) of cancer cell lines HUVEC
Method: (§1) The 4-(aryl)-N-(2-alkoxythieno[3,2-b]pyrazin-3-yl)-piperazin-1-carboxamide derivative compounds synthesized according to Examples 1 to 27 of the present invention were treated with various human tissue-derived cancer cell lines cultured according to Experimental Example 1, and thus the inhibitory effect of the growth of human cancer cells was confirmed. The cell growth inhibition experiment was conducted using sulforhodamine B (SRB) technique (Skehan et al., J. National Cancer Institute, 1990, 82: 1107-1112). Specifically, each cell line was seeded in a 96-well plate at a density of 2 to 3×10^3 cells/well, cultured overnight, and then treated with the 4-(aryl)-N-(2-alkoxythieno[3,2-b]pyrazin-3-yl)-piperazin-1-carboxamide derivative compounds of the present invention. The experiment was repeated 3 times for each compound. Cells treated with each compound were additionally incubated for 96 hours, fixed with 10% trichloroacetic acid (TCA), and then left at 4° C. for 1 hour. The resultant was washed 3 times with distilled water. Thereafter, each cell was treated with 0.4% sulforhodamine B dissolved in 1% acetic acid, stained for 30 minutes, and then washed 4 times with 1% acetic acid. The resultant was dried in the air. After shaking the resultant in Tris solution (10 mM) for 5 minutes, the absorbance was measured at 530 nm using a Benchmark Plus Microplate reader (Bio-Rad Laboratories, Hercules, Calif.).
(§2) In order to convert the OD530 value to the number of viable cells per each well, the measured OD530 value was compared to the standard OD530-vs.-cell number curve of each cell line. The percent survival was calculated using the following formula: % survival=Nlive cells(test)/Nlive cells(control)×100
(§3) IC50 values were calculated by nonlinear regression analysis.

[1] = test system: PANC-1 (pancreatic cancer) cell line; assay: Cell growth inhibition experiment (SRB), PANC-1; settings: Homo sapiens, incubated for 96 hours, read-out: IC50 (μM) of cancer cell lines PANC-1
Method: (§4) The cell lines below were used in order to confirm the efficacy of the compounds synthesized in Examples 1 to 27. Human PANC-1 (pancreatic cancer) and MDA-MB-231 (breast cancer) cell lines were obtained from American Type Culture Collection (ATCC; Manassas, Va.); and HN31 (head and neck cancer) and UMRC2 (kidney cancer) cell lines were secured from the United States National Institutes of Health (Bethesda, Md.). The MDA-MB-231, UMRC2, HN31, and PANC-1 cell lines were cultured in Dulbecco modified Eagle medium (DMEM) containing FBS (10%), HEPES (10 mM), penicillin (100 U/mL), and streptomycin (100 μg/mL). All cell lines were cultured in an incubator (37° C., 5% CO2).
as §1, §2, §3

HEK293 = assay: Cell growth inhibition experiment (SRB), HEK293; settings: Homo sapiens, incubated for 96 hours, read-out: IC50 (μM) of cancer cell lines HEK293
Method: as §1, §2, §3

HT29 = assay: Cell growth inhibition experiment (SRB), HT29; settings: Homo sapiens, HT-29, incubated for 96 hours, read-out: IC50 (μM) of cancer cell lines HT29
Method: as §1, §2, §3

[2] = test system: HN31 (head and neck cancer) cell line; assay: Cell growth inhibition experiment (SRB), HN31; settings: Homo sapiens, incubated for 96 hours, read-out: IC50 (μM) of cancer cell lines HN31
Method: as §4, §1, §2, §3

[3] = test system: UMRC2 (kidney cancer) cell line; assay: Cell growth inhibition experiment (SRB), UMRC2; settings: Homo sapiens, incubated for 96 hours, read-out: IC50 (μM) of cancer cell lines UMRC2
Method: as §4, §1, §2, §3

A549 = assay: Cell growth inhibition experiment (SRB), A549; settings: Homo sapiens, incubated for 96 hours, read-out: IC50 (μM) of cancer cell lines A549
Method: as §1, §2, §3

[4] = test system: MDA-MB-231 (breast cancer) cell line; assay: Cell growth inhibition experiment (SRB), MDA-MB-231; settings: Homo sapiens, incubated for 96 hours, read-out: IC50 (μM) of cancer cell lines MDA-MB-231
Method: as §4, §1, §2, §3

SK-OV-3 = assay: Cell growth inhibition experiment (SRB), SK-OV-3; settings: Homo sapiens, incubated for 96 hours, read-out: IC50 (μM) of cancer cell lines SK-OV-3
Method: as §1, §2, §3

Row | IC50 [1] [µM] | IC50 (HT29) [µM] | IC50 [2] [µM] | IC50 [3] [µM] | IC50 (A549) [µM] | IC50 [4] [µM] | IC50 (SK-OV-3) [µM] | SMILES | IC50 (HUVEC) [µM] | IC50 (HEK293) [µM]
1 | 0.53 | 0.31 | 0.27 | 0.03 | 2.13 | 0.02 | 0.27 | COc1cc(OC)cc(N2CCN(C(=O)Nc3nc4sc(Cl)cc4nc3OC)CC2)c1 [Example 1, N-(6-chloro-2-methoxythieno[3,2-b]pyrazin-3-yl)-4-(3,5-dimethoxyphenyl)piperazin-1-carboxamide] | 0.12 | 0.63
2 | 0.95 | 0.62 | 0.99 | 0.08 | < 2.5 | 0.06 | 0.82 | COc1nc2cc(Cl)sc2nc1NC(=O)N1CCN(c2cc(C)cc(C)c2)CC1 [Example 2, N-(6-chloro-2-methoxythieno[3,2-b]pyrazin-3-yl)-4-(3,5-dimethylphenyl)piperazin-1-carboxamide] | 0.91 | 0.93
3 | 0.56 | 0.53 | 0.71 | 0.06 | 2.11 | 0.04 | 0.85 | COc1nc2cc(Cl)sc2nc1NC(=O)N1CCN(c2cc(F)cc(F)c2)CC1 [Example 3, N-(6-chloro-2-methoxythieno[3,2-b]pyrazin-3-yl)-4-(3,5-difluorophenyl)piperazin-1-carboxamide] | 0.54 | 0.87
4 | 1.28 | < 2.5 | 1.54 | 0.54 | < 2.5 | 0.63 | < 2.5 | CCOc1nc2cc(Cl)sc2nc1NC(=O)N1CCN(c2cc(OC)cc(OC)c2)CC1 [Example 4, N-(6-chloro-2-ethoxythieno[3,2-b]pyrazin-3-yl)-4-(3,5-dimethoxyphenyl)piperazin-1-carboxamide] | 2.25 | < 2.5
5 | 2.32 | < 2.5 | 2.35 | 1.72 | < 2.5 | 1.22 | < 2.5 | CCOc1nc2cc(Cl)sc2nc1NC(=O)N1CCN(c2cc(C)cc(C)c2)CC1 [Example 5, N-(6-chloro-2-ethoxythieno[3,2-b]pyrazin-3-yl)-4-(3,5-dimethylphenyl)piperazin-1-carboxamide] | < 2.5 | < 2.5
6 | 1.98 | < 2.5 | 2.1 | 1.21 | < 2.5 | 1.13 | < 2.5 | CCOc1nc2cc(Cl)sc2nc1NC(=O)N1CCN(c2cc(F)cc(F)c2)CC1 [Example 6, N-(6-chloro-2-ethoxythieno[3,2-b]pyrazin-3-yl)-4-(3,5-difluorophenyl)piperazin-1-carboxamide] | < 2.5 | < 2.5
7 | < 2.5 | < 2.5 | < 2.5 | < 2.5 | < 2.5 | < 2.5 | < 2.5 | COc1cc(OC)cc(N2CCN(C(=O)Nc3nc4sc(Cl)cc4nc3OC(C)C)CC2)c1 [Example 7, N-(6-chloro-2-isopropoxythieno[3,2-b]pyrazin-3-yl)-4-(3,5-dimethoxyphenyl)piperazin-1-carboxamide] | < 2.5 | < 2.5
8 | < 2.5 | < 2.5 | < 2.5 | < 2.5 | < 2.5 | < 2.5 | < 2.5 | Cc1cc(C)cc(N2CCN(C(=O)Nc3nc4sc(Cl)cc4nc3OC(C)C)CC2)c1 [Example 8, N-(6-chloro-2-isopropoxythieno[3,2-b]pyrazin-3-yl)-4-(3,5-dimethylphenyl)piperazin-1-carboxamide] | < 2.5 | < 2.5
9 | < 2.5 | < 2.5 | < 2.5 | < 2.5 | < 2.5 | < 2.5 | < 2.5 | CC(C)Oc1nc2cc(Cl)sc2nc1NC(=O)N1CCN(c2cc(F)cc(F)c2)CC1 [Example 9, N-(6-chloro-2-isopropoxythieno[3,2-b]pyrazin-3-yl)-4-(3,5-difluorophenyl)piperazin-1-carboxamide] | < 2.5 | < 2.5
10 | 0.38 | 0.27 | 0.18 | 0.03 | 1.14 | 0.02 | 0.23 | COc1cc(OC)cc(N2CCN(C(=O)Nc3nc4sccc4nc3OC)CC2)c1 [Example 10, 4-(3,5-dimethoxyphenyl)-N-(2-methoxythieno[3,2-b]pyrazin-3-yl)piperazin-1-carboxamide] | 0.06 | 0.56
11 | 0.24 | 0.31 | 0.41 | 0.07 | 1.31 | 0.07 | 0.27 | COc1nc2ccsc2nc1NC(=O)N1CCN(c2cc(C)cc(C)c2)CC1 [Example 11, 4-(3,5-dimethylphenyl)-N-(2-methoxythieno[3,2-b]pyrazin-3-yl)piperazin-1-carboxamide] | 0.07 | 0.65
12 | 0.24 | 0.3 | 0.33 | 0.04 | 1.28 | 0.05 | 0.29 | COc1nc2ccsc2nc1NC(=O)N1CCN(c2cc(F)cc(F)c2)CC1 [Example 12, 4-(3,5-difluorophenyl)-N-(2-methoxythieno[3,2-b]pyrazin-3-yl)piperazin-1-carboxamide] | 0.07 | 0.55
13 | 0.65 | < 2.5 | 0.72 | 0.26 | < 2.5 | 0.16 | < 2.5 | CCOc1nc2ccsc2nc1NC(=O)N1CCN(c2cc(OC)cc(OC)c2)CC1 [Example 13, 4-(3,5-dimethoxyphenyl)-N-(2-ethoxythieno[3,2-b]pyrazin-3-yl)piperazin-1-carboxamide] | < 2.5 | < 2.5
14 | < 2.5 | < 2.5 | 0.65 | 0.57 | < 2.5 | 0.34 | < 2.5 | CCOc1nc2ccsc2nc1NC(=O)N1CCN(c2cc(C)cc(C)c2)CC1 [Example 14, 4-(3,5-dimethylphenyl)-N-(2-ethoxythieno[3,2-b]pyrazin-3-yl)piperazin-1-carboxamide] | < 2.5 | < 2.5
15 | 1.12 | < 2.5 | 0.78 | 0.25 | < 2.5 | 0.25 | < 2.5 | CCOc1nc2ccsc2nc1NC(=O)N1CCN(c2cc(F)cc(F)c2)CC1 [Example 15, 4-(3,5-difluorophenyl)-N-(2-ethoxythieno[3,2-b]pyrazin-3-yl)piperazin-1-carboxamide] | < 2.5 | < 2.5
16 | < 2.5 | < 2.5 | < 2.5 | < 2.5 | < 2.5 | 2.12 | < 2.5 | COc1cc(OC)cc(N2CCN(C(=O)Nc3nc4sccc4nc3OC(C)C)CC2)c1 [Example 16, 4-(3,5-dimethoxyphenyl)-N-(2-isopropoxythieno[3,2-b]pyrazin-3-yl)piperazin-1-carboxamide] | < 2.5 | < 2.5

From patent US10059721B2, “Substituted thieno[3,2-b]pyrazines for inhibiting cancer cell proliferation and inducing cancer cell apoptosis” (DONGGUK UNIVERSITY INDUSTRY-ACADEMIC COOPERATION FOUNDATION, priority 2014, dated 2018)
